Assay results: US8415299B2, “Methods for improved avian performance” (priority 2004, dated 2013)
Read-outs that look alike come from different tables or passages of the source. Marks after values point to notes of the source that are not given here.

Legend:
[1] = system: Cobb broiler breeder hens and roosters; assay type: in vivo
Source text: Molting Cobb Broiler Breeder Hens and Roosters with Dietary Thyroxine.

turkey breeder hens = assay: Experiment 7: molting of turkey breeder hens with dietary L-thyroxine, porcine thyroid powder or thyroactive iodinated casein, 10 days; assay type: in vivo; settings: 10, 20, or 40 mg T4/kg diet
Source text: Experiment 7. Molting of Turkey Breeder Hens with Dietary L-Thyroxine, PorcineThyroid Powder, or Thyroactive Iodinated Casein. Turkey breeder hens were molted with various dietary thyroxine treatments at Diamond K Research, […]. (Jun. 20-Jul. 1, 2005).

Bovans caged laying hens = assay: Experiment 6: molting of caged laying hens with dietary L-thyroxine or thyroactive iodinated casein; assay type: in vivo, chickens; settings: for 9 Jun. 2005 (9th d Trt) Body Wt Change: 10 hours of light daily; for 25 May 2005 Initial Body Wt: before 7-day pretest
Source text: Experiment 6. Molting of Caged Laying with Dietary L-Thyroxine or Thyroactive Iodinated Casein
In Experiment 6, a conventional feed withdrawal molting procedure was compared with 5 dietary thyroxine treatments. Body weight loss after 9 days was greater, days to 0% egg production (9 days) shorter, ovary plus oviduct weight numerically lighter on day 9 of treatment, but eggs collected on day 4 of treatment had thinner shells, in the feed withdrawal group.

N[C@@H](Cc1cc(I)c(Oc2cc(I)c(O)c(I)c2)c(I)c1)C(=O)O [L-thyroxine, 3,5,3′,5′-tetraiodothyronine]
Tolerance in roosters ([1]; 25 or 40 mg/kg diet, roosters began to stroke blood from the nostrils): males were unable to tolerate these levels of L-thyroxine | # Eggs per pen ([1]; 25 ppm feed from 22-Sep, pen 50, 1-Nov): 0 | # Eggs per pen ([1]; 25 ppm feed from 22-Sep, pen 50, 1-Oct): 3 | # Eggs per pen ([1]; 25 ppm feed from 22-Sep, pen 50, 2-Nov): 0 | # Eggs per pen ([1]; 25 ppm feed from 22-Sep, pen 50, 2-Oct): 1 | # Eggs per pen ([1]; 25 ppm feed from 22-Sep, pen 50, 3-Nov): 0 | # Eggs per pen ([1]; 25 ppm feed from 22-Sep, pen 50, 3-Oct): 0 | # Eggs per pen ([1]; 25 ppm feed from 22-Sep, pen 50, 4-Nov): 0 | # Eggs per pen ([1]; 25 ppm feed from 22-Sep, pen 50, 4-Oct): 1 | # Eggs per pen ([1]; 25 ppm feed from 22-Sep, pen 50, 5-Oct): 1 | # Eggs per pen ([1]; 25 ppm feed from 22-Sep, pen 50, 6-Oct): 0 | # Eggs per pen ([1]; 25 ppm feed from 22-Sep, pen 50, 7-Oct): 0 | # Eggs per pen ([1]; 25 ppm feed from 22-Sep, pen 50, 8-Oct): 3 | # Eggs per pen ([1]; 25 ppm feed from 22-Sep, pen 50, 9-Oct): 1 | # Eggs per pen ([1]; 25 ppm feed from 22-Sep, pen 50, 10-Oct): 0 | # Eggs per pen ([1]; 25 ppm feed from 22-Sep, pen 50, 11-Oct): 0 | # Eggs per pen ([1]; 25 ppm feed from 22-Sep, pen 50, 12-Oct): 0 | # Eggs per pen ([1]; 25 ppm feed from 22-Sep, pen 50, 13-Oct): 0 | # Eggs per pen ([1]; 25 ppm feed from 22-Sep, pen 50, 14-Oct): 0 | # Eggs per pen ([1]; 25 ppm feed from 22-Sep, pen 50, 15-Oct): 0 | # Eggs per pen ([1]; 25 ppm feed from 22-Sep, pen 50, 16-Oct): 0 | # Eggs per pen ([1]; 25 ppm feed from 22-Sep, pen 50, 16-Sep): 15 | # Eggs per pen ([1]; 25 ppm feed from 22-Sep, pen 50, 17-Oct): 0 | # Eggs per pen ([1]; 25 ppm feed from 22-Sep, pen 50, 17-Sep): 14 | # Eggs per pen ([1]; 25 ppm feed from 22-Sep, pen 50, 18-Oct): 0 | # Eggs per pen ([1]; 25 ppm feed from 22-Sep, pen 50, 18-Sep): 11 | # Eggs per pen ([1]; 25 ppm feed from 22-Sep, pen 50, 19-Oct): 0 | # Eggs per pen ([1]; 25 ppm feed from 22-Sep, pen 50, 19-Sep): 17 | # Eggs per pen ([1]; 25 ppm feed from 22-Sep, pen 50, 20-Oct): 0 | # Eggs per pen ([1]; 25 ppm feed from 22-Sep, pen 50, 20-Sep): 15 | # Eggs per pen ([1]; 25 ppm feed from 22-Sep, pen 50, 21-Oct): 0 | # Eggs per pen ([1]; 25 ppm feed from 22-Sep, pen 50, 21-Sep): 14 | # Eggs per pen ([1]; 25 ppm feed from 22-Sep, pen 50, 22-Oct): 0 | # Eggs per pen ([1]; 25 ppm feed from 22-Sep, pen 50, 22-Sep): 14 | # Eggs per pen ([1]; 25 ppm feed from 22-Sep, pen 50, 23-Oct): 0 | # Eggs per pen ([1]; 25 ppm feed from 22-Sep, pen 50, 23-Sep): 19 | # Eggs per pen ([1]; 25 ppm feed from 22-Sep, pen 50, 24-Oct): 0 | # Eggs per pen ([1]; 25 ppm feed from 22-Sep, pen 50, 24-Sep): 7 | # Eggs per pen ([1]; 25 ppm feed from 22-Sep, pen 50, 25-Oct): 0 | # Eggs per pen ([1]; 25 ppm feed from 22-Sep, pen 50, 25-Sep): 8 | # Eggs per pen ([1]; 25 ppm feed from 22-Sep, pen 50, 26-Oct): 0 | # Eggs per pen ([1]; 25 ppm feed from 22-Sep, pen 50, 26-Sep): 9 | # Eggs per pen ([1]; 25 ppm feed from 22-Sep, pen 50, 27-Oct): 0 | # Eggs per pen ([1]; 25 ppm feed from 22-Sep, pen 50, 27-Sep): 4 | # Eggs per pen ([1]; 25 ppm feed from 22-Sep, pen 50, 28-Oct): 0 | # Eggs per pen ([1]; 25 ppm feed from 22-Sep, pen 50, 28-Sep): 3 | # Eggs per pen ([1]; 25 ppm feed from 22-Sep, pen 50, 29-Oct): 0 | # Eggs per pen ([1]; 25 ppm feed from 22-Sep, pen 50, 29-Sep): 1 | # Eggs per pen ([1]; 25 ppm feed from 22-Sep, pen 50, 30-Oct): 0 | # Eggs per pen ([1]; 25 ppm feed from 22-Sep, pen 50, 30-Sep): 0 | # Eggs per pen ([1]; 25 ppm feed from 22-Sep, pen 50, 31-Oct): 0 | # Eggs per pen ([1]; 40 ppm feed from 22-Sep, pen 51, 1-Nov): 1 | # Eggs per pen ([1]; 40 ppm feed from 22-Sep, pen 51, 1-Oct): 1 | # Eggs per pen ([1]; 40 ppm feed from 22-Sep, pen 51, 2-Nov): 3 | # Eggs per pen ([1]; 40 ppm feed from 22-Sep, pen 51, 2-Oct): 0 | # Eggs per pen ([1]; 40 ppm feed from 22-Sep, pen 51, 3-Nov): 3 | # Eggs per pen ([1]; 40 ppm feed from 22-Sep, pen 51, 3-Oct): 0 | # Eggs per pen ([1]; 40 ppm feed from 22-Sep, pen 51, 4-Nov): 5 | # Eggs per pen ([1]; 40 ppm feed from 22-Sep, pen 51, 4-Oct): 0 | # Eggs per pen ([1]; 40 ppm feed from 22-Sep, pen 51, 5-Oct): 0 | # Eggs per pen ([1]; 40 ppm feed from 22-Sep, pen 51, 6-Oct): 0 | # Eggs per pen ([1]; 40 ppm feed from 22-Sep, pen 51, 7-Oct): 0 | # Eggs per pen ([1]; 40 ppm feed from 22-Sep, pen 51, 8-Oct): 0 | # Eggs per pen ([1]; 40 ppm feed from 22-Sep, pen 51, 9-Oct): 0 | # Eggs per pen ([1]; 40 ppm feed from 22-Sep, pen 51, 10-Oct): 0 | # Eggs per pen ([1]; 40 ppm feed from 22-Sep, pen 51, 11-Oct): 0 | # Eggs per pen ([1]; 40 ppm feed from 22-Sep, pen 51, 12-Oct): 0 | # Eggs per pen ([1]; 40 ppm feed from 22-Sep, pen 51, 13-Oct): 0 | # Eggs per pen ([1]; 40 ppm feed from 22-Sep, pen 51, 14-Oct): 0 | # Eggs per pen ([1]; 40 ppm feed from 22-Sep, pen 51, 15-Oct): 0 | # Eggs per pen ([1]; 40 ppm feed from 22-Sep, pen 51, 16-Oct): 0 | # Eggs per pen ([1]; 40 ppm feed from 22-Sep, pen 51, 16-Sep): 12 | # Eggs per pen ([1]; 40 ppm feed from 22-Sep, pen 51, 17-Oct): 0 | # Eggs per pen ([1]; 40 ppm feed from 22-Sep, pen 51, 17-Sep): 19 | # Eggs per pen ([1]; 40 ppm feed from 22-Sep, pen 51, 18-Oct): 0 | # Eggs per pen ([1]; 40 ppm feed from 22-Sep, pen 51, 18-Sep): 19 | # Eggs per pen ([1]; 40 ppm feed from 22-Sep, pen 51, 19-Oct): 0 | # Eggs per pen ([1]; 40 ppm feed from 22-Sep, pen 51, 19-Sep): 20 | # Eggs per pen ([1]; 40 ppm feed from 22-Sep, pen 51, 20-Oct): 0 | # Eggs per pen ([1]; 40 ppm feed from 22-Sep, pen 51, 20-Sep): 16 | # Eggs per pen ([1]; 40 ppm feed from 22-Sep, pen 51, 21-Oct): 0 | # Eggs per pen ([1]; 40 ppm feed from 22-Sep, pen 51, 21-Sep): 16 | # Eggs per pen ([1]; 40 ppm feed from 22-Sep, pen 51, 22-Oct): 0 | # Eggs per pen ([1]; 40 ppm feed from 22-Sep, pen 51, 22-Sep): 18 | # Eggs per pen ([1]; 40 ppm feed from 22-Sep, pen 51, 23-Oct): 0 | # Eggs per pen ([1]; 40 ppm feed from 22-Sep, pen 51, 23-Sep): 15 | # Eggs per pen ([1]; 40 ppm feed from 22-Sep, pen 51, 24-Oct): 0 | # Eggs per pen ([1]; 40 ppm feed from 22-Sep, pen 51, 24-Sep): 10 | # Eggs per pen ([1]; 40 ppm feed from 22-Sep, pen 51, 25-Oct): 0 | # Eggs per pen ([1]; 40 ppm feed from 22-Sep, pen 51, 25-Sep): 11 | # Eggs per pen ([1]; 40 ppm feed from 22-Sep, pen 51, 26-Oct): 0 | # Eggs per pen ([1]; 40 ppm feed from 22-Sep, pen 51, 26-Sep): 6 | # Eggs per pen ([1]; 40 ppm feed from 22-Sep, pen 51, 27-Oct): 0 | # Eggs per pen ([1]; 40 ppm feed from 22-Sep, pen 51, 27-Sep): 5 | # Eggs per pen ([1]; 40 ppm feed from 22-Sep, pen 51, 28-Oct): 0 | # Eggs per pen ([1]; 40 ppm feed from 22-Sep, pen 51, 28-Sep): 0 | # Eggs per pen ([1]; 40 ppm feed from 22-Sep, pen 51, 29-Oct): 3 | # Eggs per pen ([1]; 40 ppm feed from 22-Sep, pen 51, 29-Sep): 1 | # Eggs per pen ([1]; 40 ppm feed from 22-Sep, pen 51, 30-Oct): 3 | # Eggs per pen ([1]; 40 ppm feed from 22-Sep, pen 51, 30-Sep): 0 | # Eggs per pen ([1]; 40 ppm feed from 22-Sep, pen 51, 31-Oct): 3 | Time to reduced feed intake, ceased egg production and start of feather molt ([1]; Cobb broiler breeder hens on thyroxine treated feed (25 or 40 mg/kg)): 15 to 17 days | Effectiveness at regressing reproductive tracts (turkey breeder hens): not as effective as porcine thyroid powder | 9 Jun. 2005 (9th d Trt) Body Wt Change (Bovans caged laying hens; 20 mg T4/kg diet): −0.50^b lb | 25 May 2005 Initial Body Wt (Bovans caged laying hens; 20 mg T4/kg diet): 3.49 lb | Days to 0% egg production (Bovans caged laying hens; 40 mg T4/kg diet): 11 days | Weight loss (Bovans caged laying hens; 40 mg T4/kg diet): −0.54 lb | 9 Jun. 2005 (9th d Trt) Body Wt Change (Bovans caged laying hens; 40 mg T4/kg diet): −0.60^b lb | 25 May 2005 Initial Body Wt (Bovans caged laying hens; 40 mg T4/kg diet): 3.57 lb
